# Data as given in patent US8329644B2, “Lantibiotic-based compounds having antimicrobial activity” (Novacta Biosystems Limited, priority 2007, dated 2012).
# Read-outs that look alike come from different tables or passages of the source.
# Legend:
# [1] = Stability in simulated gastric fluid (SGF); type: in vitro ADME; details: 37° C., analytical HPLC
# Experimental: (§1) Nisin, mersacidin, compound I and compound III were tested for their susceptibility towards enzymatic digestion in the stomach. Nisin, mersacidin and compound III were tested for their susceptibility towards enzymatic digestion in the intestine. The SGF and SIF were based on the standard USP solutions for simulated gastric and simulated intestinal fluids and their activity confirmed against Bovine Serum Albumin (Hilger et al, Clin. Exp. Immunol. 2001, 123, 387-94). The compounds were incubated in SGF or SIF at 37° C. and their concentrations quantified by analytical HPLC (UV detection at 210 nm). The potential degradation of each compound was also monitored qualitatively by measuring in vitro antibacterial activity against Micrococcus luteus.
# [2] = rat, 100 mg/kg oral
# Experimental: Male Sprague-Dawley rats were dosed with compound I at 100 mg/kg via the oral route. Faeces and urine were collected over a 48 h period in two batches (at 24 h and 48 h post dose). Blood samples were taken at various time points for the first 24 h.
# Water solubility = type: physicochemical; details: aqueous
# Excerpt: Typically, compounds of the invention were isolated using phosphate buffers.
# S. epidermidis = test: MIC susceptibility testing, S. epidermidis; type: cell-based, Staphylococcus epidermidis; details: Staphylococcus epidermidis
# Experimental: (§2) Susceptibility testing for all aerobic organisms with the exception of Streptococcus pneumoniae was performed by two-fold serial antibiotic dilutions in Mueller-Hinton Broth supplemented with 50 μg/ml Ca^2+ unless otherwise noted. Susceptibility testing for S. pneumoniae was performed by two-fold serial antibiotic dilutions in Brain-Heart-Infusion Broth supplemented with 50 μg/ml Ca^2+ unless otherwise noted. Actively growing broth cultures were diluted to contain […] by adjusting to an OD600 of 0.2-0.3. They were then diluted a further 1:100 in fresh sterile broth. The assays were performed in duplicate in sterile 96-well microtitre plates in a total volume of 200 μl (160 μl broth, 20 μl antimicrobial agent, 20 μl inoculum) in a concentration range from 64 μg/ml to 0.06 μg/ml. […] Clinical isolates of Clostridium difficile were tested in Wilkins-Chalgren Anaerobe Agar under anaerobic conditions. In all cases, vancomycin was used as a reference antibiotic
# E. faecium = test: MIC susceptibility testing, E. faecium; type: cell-based; details: Enterococcus faecium
# Experimental: as §2
# E. coli = test: MIC against intestinal flora organisms, E. coli; type: cell-based; details: for MIC: Escherichia coli, read-out: Minimal Inhibitory Concentration (MIC)
# Experimental: as §2
# E. faecalis = test: MIC susceptibility testing, E. faecalis; type: cell-based; details: Enterococcus faecalis; E. faecalis 29212; Table 2; read-out: MIC
# Experimental: as §2
# S. aureus = test: MIC susceptibility testing, S. aureus; type: cell-based, Staphyloccus aureus; details: Staphylococcus aureus, Table 2, read-out: MIC
# Experimental: as §2
# M. luteus = test: MIC susceptibility testing, M. luteus; type: cell-based; details: Micrococcus luteus; M. luteus 4698; Table 2; read-out: MIC
# Experimental: as §2
# [3] = system: Bifidobacterium adolescentis; test: MIC against intestinal flora organisms, Bifidobacterium adolescentis; type: cell-based; details: NCTC11814; Bifidobacterium adolescentis NCTC 11814; Table 5; read-out: Minimal Inhibitory Concentration (MIC)
# Bacteroides fragilis = test: MIC against intestinal flora organisms, Bacteroides fragilis; type: cell-based; details: NCTC9343; Bacteroides fragilis NCTC 9343; Table 5; read-out: Minimal Inhibitory Concentration (MIC)
# [4] = system: C. difficile strain VPI 10463; test: Hamster model of C. difficile associated cecitis, first experiment (FIG. 1); type: in vivo; details: C. difficile VPI 10463, three times daily at 50 mg/kg/day, 5-day dosing period, groups of 6
# Experimental: In the first experiment (FIG. 1) groups of 6 animals were dosed with approximately 10^7 cells of C. difficile strain VPI 10463 and 24 hours later with a subcutaneous dose of 10 mg/kg clindamycin phosphate.
# The procedure as described induced a C. difficile infection in the test animals, from which all animals treated only with vehicle died within 3 days.
# Clostridium difficile = test: MIC, Clostridium difficile in Wilkins-Chalgren Anaerobe Agar; type: cell-based; set-up: key: MIC in μg/ml (two-fold dilutions, 0.06–64)
# Experimental: as §2
# S. pneumoniae = test: MIC susceptibility testing, S. pneumoniae (Brain-Heart-Infusion Broth); type: cell-based, Streptococcus pneumoniae; details: Streptococcus pneumoniae; S. pneumoniae R6; Table 2; read-out: MIC
# Experimental: as §2
# [5] = system: Bacteroides thetaiotaomicron; test: MIC against intestinal flora organisms, Bacteroides thetaiotaomicron; type: cell-based; details: NCTC10582; Bacteroides thetaiotaomicron NCTC 10582; Table 5; read-out: Minimal Inhibitory Concentration (MIC)
# Bifidobacterium longum = test: MIC against intestinal flora organisms, Bifidobacterium longum; type: cell-based; details: NCTC11818; Bifidobacterium longum NCTC 11818; Table 5; read-out: Minimal Inhibitory Concentration (MIC)
# Micrococcus luteus = test: In vitro antibacterial activity against Micrococcus luteus during SIF incubation; type: cell-based; details: after incubation in SIF
# Experimental: as §1
compound,measurement,setting,value
"CC[C@H](C)[C@@H]1NC(=O)[C@@H]2NC(=O)[C@H](CC(C)C)NC(=O)[C@H](NC(=O)[C@@H]3CSC[C@@H](N)C(=O)N[C@@H](CO)C(=O)NCC(=O)N[C@@H](Cc4c[nH]c5ccccc45)C(=O)N[C@@H](C(C)C)C(=O)N3)[C@H](C)SC[C@H](NC(=O)[C@H](CCC(=O)O)NC1=O)C(=O)NCC(=O)N[C@H]1C(=O)N[C@@H](CC(C)C)C(=O)N[C@@H](C(C)C)C(=O)N[C@@H](CS[C@H]2C)C(=O)N[C@@H](C)C(=O)N[C@H](C(=O)NCCO)CS[C@H]1C [Compound I, Deoxy-Actagardine B N-[2-ethanolamine]monocarboxamide]",degradation in Simulated Gastric Fluid,[1],did not show appreciable degradation
same,material recovered from plasma or urine,[2],No material was recovered
same,solubility,Water solubility,15 mg/mL
"CN[C@H](CC(C)C)C(=O)N[C@H]1C(=O)N[C@@H](CC(N)=O)C(=O)N[C@H]2C(=O)N[C@H]3C(=O)N[C@H](C(=O)N[C@H](C(=O)O)c4cc(O)cc(O)c4-c4cc3ccc4O)[C@H](O)c3ccc(c(Cl)c3)Oc3cc2cc(c3O[C@@H]2O[C@H](CO)[C@@H](O)[C@H](O)[C@H]2O[C@H]2C[C@](C)(N)[C@H](O)[C@H](C)O2)Oc2ccc(cc2Cl)[C@H]1O [Vancomycin, vancomycin, reference compound]",MIC,S. epidermidis,2 mg/L
same,MIC,"E. faecium; ATCC19579, E. faecium (VSE) ATCC 19579, Table 5, read-out: Minimal Inhibitory Concentration (MIC)",0.5 mg/L
same,MIC,"E. faecium; ATCC29212, read-out: Minimal Inhibitory Concentration (MIC), E. faecium (VSE) ATCC 29212, Table 5",4 mg/L
same,MIC,"E. faecium; E. faecium 19579, Table 2, read-out: MIC",4 mg/L
same,MIC,"E. faecium; E. faecium 7131121, Table 2, read-out: MIC",> 64 mg/L
same,MIC,"E. faecium; VRE, E. faecium (VRE) (clinical isolate), Table 5, first isolate, read-out: Minimal Inhibitory Concentration (MIC)",> 64 mg/L
same,MIC,"E. faecium; VRE, E. faecium (VRE) (clinical isolate), Table 5, second isolate, read-out: Minimal Inhibitory Concentration (MIC)",> 64 mg/L
same,Minimal Inhibitory Concentration (MIC),"E. coli; E. coli DC2 (membrane more susceptible), Table 5, first line",>64 mg/L
same,MIC,"E. coli; ATCC25922, E. coli ATCC 25922, Table 5",> 64 mg/L
same,MIC,"E. coli; E. coli DC2 (membrane more susceptible), Table 5, second line",> 64 mg/L
same,MIC,E. faecalis,4 mg/L
same,MIC,S. aureus; S. aureus R33,1 mg/L
same,MIC,S. aureus; S. aureus SH1000,2 mg/L
same,MIC,M. luteus,2 mg/L
same,MIC,[3],1 mg/L
same,MIC,Bacteroides fragilis,32 mg/L
same,survival of infected animals,[4],survived for the duration of the entire 5-day dosing period
same,MIC,"Clostridium difficile; Clostridioides difficile, C. difficile 027C, Table 4, read-out: MIC",0.5 mg/L
same,MIC,"Clostridium difficile; Clostridioides difficile, C. difficile 027SM, Table 4, read-out: MIC",0.5 mg/L
same,MIC,"Clostridium difficile; Clostridioides difficile, C. difficile 19126, Table 4, read-out: MIC",1 mg/L
same,MIC,"Clostridium difficile; Clostridioides difficile, C. difficile 37779, Table 4, read-out: MIC",1 mg/L
same,MIC,"Clostridium difficile; Clostridioides difficile, C. difficile B32, Table 4, read-out: MIC",1 mg/L
same,MIC,"Clostridium difficile; Clostridioides difficile, C. difficile E4, Table 4, read-out: MIC",1 mg/L
same,MIC,"Clostridium difficile; Clostridioides difficile, C. difficile E16, Table 4, read-out: MIC",1 mg/L
same,MIC,"Clostridium difficile; Clostridioides difficile, C. difficile E101, Table 4, read-out: MIC",1 mg/L
same,MIC,"Clostridium difficile; Clostridioides difficile, C. difficile P24, Table 4, read-out: MIC",1 mg/L
same,MIC,"Clostridium difficile; Clostridioides difficile, C. difficile P49, Table 4, read-out: MIC",0.5 mg/L
same,MIC,"Clostridium difficile; Clostridioides difficile, C. difficile P59, Table 4, read-out: MIC",1 mg/L
same,MIC,"Clostridium difficile; Clostridioides difficile, C. difficile P62, Table 4, read-out: MIC",0.5 mg/L
same,MIC,S. pneumoniae,> 64 mg/L
same,MIC,[5],64 mg/L
same,MIC,Bifidobacterium longum,1 to 2 mg/L
Deoxy-Actagardine B N-[2-hydroxy-2-phenylethylamine]monocarboxamide [Compound XX],MIC,"Clostridium difficile; C. difficile 027C, Table 4A",2
same,MIC,"Clostridium difficile; C. difficile 630, Table 4A",2
same,MIC,"Clostridium difficile; C. difficile 19126, Table 4A",2
same,MIC,"Clostridium difficile; C. difficile 37779, Table 4A",2
Deoxy-actagardine B (2-hydroxypiperazine) monocarboxamide [Compound XXIII],MIC,"Clostridium difficile; C. difficile 027C, Table 4A",4
same,MIC,"Clostridium difficile; C. difficile 630, Table 4A",2
same,MIC,"Clostridium difficile; C. difficile 19126, Table 4A",4
same,MIC,"Clostridium difficile; C. difficile 37779, Table 4A",4
Deoxy-actagardine B (L-serine methyl ester) monocarboxamide [Compound XXI],MIC,"Clostridium difficile; C. difficile 027C, Table 4A",2
same,MIC,"Clostridium difficile; C. difficile 630, Table 4A",4
same,MIC,"Clostridium difficile; C. difficile 19126, Table 4A",4
same,MIC,"Clostridium difficile; C. difficile 37779, Table 4A",4
Deoxyactagardine B (N-(2-hydroxyethyl)ethylenediamine) monocarboxamide [Compound XXII],MIC,"Clostridium difficile; C. difficile 027C, Table 4A",2
same,MIC,"Clostridium difficile; C. difficile 630, Table 4A",2
same,MIC,"Clostridium difficile; C. difficile 19126, Table 4A",2
same,MIC,"Clostridium difficile; C. difficile 37779, Table 4A",2
mersacidin,in vitro activity against M. luteus during the course of the experiment,Micrococcus luteus,remained unaltered
